Holding throughout (format): cell-based
One assay deals with Microcystis flos-aquae. The assay can be described thus: Growth inhibition of Cyanobacteria, chlorophyll-a content. How it is done:
(§1) The solution of the control and sample I were centrifuged at 10000 rpm at 20° C. for 3 hours, and then the supernatant were poured out. Next, two 10 ml portions of 95% (v/v) ethanol were added to sample I and the control and mixed with the residues. Next, the solution of sample I and the control were water-bathed in 60° C. water for 30 mins to extract Chlorophyll-a. When being bathed in the water, the solution of the control and sample I were shaken every ten minutes. After that, the solutions were centrifuged at 5000 G at 20° C. for 15 minutes and the supernatants were kept. Then, the absorbance at 665 nm of the control and sample I were detected. Finally, according to the “Standard Methods for the Examination Chlorophyll-a in Water-Ethanol Extraction” issued by National Indian Education Association, Taiwan (NIEA E508.00B), the absorbance at 665 nm of the control and sample I were calibrated and the concentration of Chlorophyll-a content can be calculated by the absorbance measure.
(§2) To verify whether Cyanobacteria can be inhibited by glucosamine or not, in the following embodiment, two kinds of toxic Cyanobacteria, Microcystis aeruginosa and […]. The detailed procedures are described below.
(§3) First, four 50 ml portions of water with Microcystis aeruginosa were obtained and labeled as control and sample II, sample III, and sample IV respectively. The weight concentration of Microcystis aeruginosa cell in these four samples 883 μg/L (ppb). Next, different amount of glucosamine was added into the three samples so that the concentrations of glucosamine in samples II, III, and IV were 10 ppm, 20 ppm, and 50 ppm, respectively. After that, the control and sample II, III, and IV were cultured for 14 days with Bold's medium, and the Chlorophyll-a content of each sample were detected every 7 days. The procedures of detecting Chlorophyll-a content was the same as mentioned in embodiment I and the whole process was repeated for testing Microcystis flos-aquae.

A further assay concerns Microcystis aeruginosa. The assay is described as above. Here is the method: as §1, §2, §3
In assay [1] the test system is fishpond water algae, especially abundant in Chlorophyta. The assay can be described thus: Growth inhibition of algae in fishpond water, chlorophyll-a content by spectrometry. The following applies: 100 ppm glucosamine. How it is done: In order to test if glucosamine inhibited the growth of algae or not, in the following embodiment, glucosamine was added to samples and then observed. Moreover, since chlorophyll-a content of algae is widely used as an indicator of the quality of freshwater bodies and the abundance of algae, the chlorophyll-a content in the sample was detected by spectrometry.
First, two 20 ml portions of water were obtained from a fishpond which contains a varieties of algae and is especially abundant in Chlorophyta. Both portions of water were labeled as control and sample I respectively. Next, 100 ppm glucosamine was added in sample I, and then the control and sample I were cultured for 28 days with Bold's medium.
The solution of the control and sample I were centrifuged at 10000 rpm at 20° C. for 3 hours, and then the supernatant were poured out. Next, two 10 ml portions of 95% (v/v) ethanol were added to sample I and the control and mixed with the residues. […] Then, the absorbance at 665 nm of the control and sample I were detected. Finally, according to the “Standard Methods for the Examination Chlorophyll-a in Water-Ethanol Extraction” issued by National Indian Education Association, Taiwan (NIEA E508.00B), the absorbance at 665 nm of the control and sample I were calibrated and the concentration of Chlorophyll-a content can be calculated by the absorbance measure.

Setting [2] is: Microcystis aeruginosa, 336 h, read-out: Inhibition efficiency (after 14 days).

This is an account of results in patent publication US7612049B2, “Method of inhibition the growth of algae” (priority 2007, dated 2009).

As for `N[C@H]1C(O)O[C@H](CO)[C@@H](O)[C@@H]1O` (stereo partly drawn) [glucosamine], the Chlorophyll-a content with Microcystis flos-aquae (10 ppm glucosamine (Sample V), 7th day, control 178 ppb) stood at 0 ppb; in the assay with Microcystis flos-aquae (10 ppm glucosamine (Sample V), 14th day, control 438 ppb), 225 ppb; in the assay with Microcystis flos-aquae (20 ppm glucosamine (Sample VI), 7th day, control 178 ppb), 3 ppb; with Microcystis flos-aquae (20 ppm glucosamine (Sample VI), 14th day, control 438 ppb), 142 ppb; with Microcystis flos-aquae (50 ppm glucosamine (Sample VII), 7th day, control 178 ppb), 15 ppb; in the assay on Microcystis flos-aquae (50 ppm glucosamine (Sample VII), 14th day, control 438 ppb), 92 ppb. The Chlorophyll-a content in the assay with Microcystis aeruginosa (10 ppm glucosamine (Sample II), 7th day, control 270 ppb) came to 80 ppb; in the assay on Microcystis aeruginosa (10 ppm glucosamine (Sample II), 14th day, control 2657 ppb), 1922 ppb; with Microcystis aeruginosa (20 ppm glucosamine (Sample III), 7th day, control 270 ppb), 65 ppb; in the assay on Microcystis aeruginosa (20 ppm glucosamine (Sample III), 14th day, control 2657 ppb), 1004 ppb; with Microcystis aeruginosa (50 ppm glucosamine (Sample IV), 7th day, control 270 ppb) it was 41 ppb; with Microcystis aeruginosa (50 ppm glucosamine (Sample IV), 14th day, control 2657 ppb), 72.3 ppb. The inhibition at 10 ppm came out at 48.6% in the assay with Microcystis flos-aquae (Microcystis flos-aquae, 336 h, 10 ppm glucosamine (Sample V), read-out: Inhibition efficiency (after 14 days)) and 27.6% in the assay on Microcystis aeruginosa (setting [2]). In addition, the inhibition at 20 ppm with Microcystis flos-aquae (Microcystis flos-aquae, 336 h, 20 ppm glucosamine (Sample VI), read-out: Inhibition efficiency (after 14 days)) worked out at 67.5%; with Microcystis aeruginosa (setting [2]), 62.2%. Further, the inhibition at 50 ppm with Microcystis flos-aquae (Microcystis flos-aquae, 336 h, 50 ppm glucosamine (Sample VII), read-out: Inhibition efficiency (after 14 days)) was determined as 78.9%; with Microcystis aeruginosa (setting [2]), 97.2%. The “minimum effective amount of glucosamine” value with Microcystis aeruginosa (10 ppm divided by 0.883 mg (weight concentration of Cyanobacteria 0.883 mg/L)) is given as “at least 10 ppm/mg algae”. Also, in assay [1] (28 days, Bold's medium), the “algae bloom observed after culture” value is given as “the algae in the control bloomed, but not sample I”. Further, the “concentration of Chlorophyll-a content” value in assay [1] (cultured 28 days with Bold's medium, control 652 ppb) is 74 ppb.

What is called inhibition is the relative decrease from the control value, in per cent.
